From PMC9240354, “Pharmacokinetics, Pharmacodynamics and Antiviral Efficacy of the MEK Inhibitor Zapnometinib in Animal Models and in Humans” (Frontiers in Pharmacology, 2022)
Like-named read-outs stand apart in the source and are kept apart here.

Experiments:
[1] = tolerability in mice; assay type: in vivo; conditions: influenza virus infected mice, 25 mg/kg BID p.o.
Method: Zapnometinib [2-(2-Chloro-4-Iodophenylamino)-N-3,4-Difluoro benzoic acid] (M = 409.56 g/mol) was synthesized at ChemCon GmbH (Freiburg, Germany). The doses used in this study were chosen based on previously unpublished preclinical data. […] The toxicity of zapnometinib was evaluated in single- and repeat-dose p. o. studies of up to 1-month duration in rats and dogs. The genetic toxicity of zapnometinib was investigated in compliance with ICH S2; a standard battery of genotoxicity studies was performed, comprising an Ames test, an in vitro chromosome aberration test in human lymphocytes and an in vivo micronucleus assay in rats. Thus, the doses used in this manuscript were safe (Koch-Heier et al., manuscript in preparation). For treatment of mice, 10.5 mg zapnometinib were dissolved in 5% (v/v) dimethyl sulfoxide (DMSO) (Carl Roth GmbH, Karlsruhe, Germany) and further diluted with 15% (v/v) Cremophor EL (Merck KGaA, Darmstadt, Germany), and 80% (v/v) phosphate-buffered saline (PBS) (Gibco, Carlsbad, CA, California, United States). Each mouse received a dose of 25 mg/kg zapnometinib in an application volume of 200 µL of the formulation by oral gavage. The first treatment was given on day 0 (1 h prior to influenza virus infection) and the second treatment 7 h post infection. […]

[2] = in vivo; conditions: Syrian, hamster; for AUC(0-t) / Cmax / Tmax: po
[3] = set-up: method as in Koch-Heier et al., manuscript in preparation; conditions: mice, 75 mg/kg; previously unpublished preclinical data; ref Koch-Heier et al., manuscript in preparation; cited from earlier work
[4] = test system: human PBMCs; conditions: read-out: CC50 cytotoxicity, ref Laure et al., 2020; cited from earlier work

Compound: O=C(O)c1ccc(F)c(F)c1Nc1ccc(I)cc1Cl [zapnometinib, 2-(2-Chloro-4-Iodophenylamino)-N-3,4-Difluoro benzoic acid]
- tolerability [1]: well tolerated and not toxic
- half-life [2]: 8 h
- AUC(0-t) ([2]; 15 mg/kg): 121 ± 4 µg·h/mL
- Cmax ([2]; 15 mg/kg): 15000 ± 1000 ng/mL
- Tmax ([2]; 15 mg/kg): 3 ± 1 h
- AUC(0-t) ([2]; 60 mg/kg): 623 ± 87 µg·h/mL
- Cmax ([2]; 60 mg/kg): 61000 ± 2000 ng/mL
- Tmax ([2]; 60 mg/kg): 3 ± 1 h
- tolerability [3]: well tolerated
- CC50 [4]: 322 µM
